Read-outs that look alike come from different tables or passages of the source.
What was measured:
[1] = target: T1, interaction between GMPPNP-bound recombinant K-Ras4B G12C mutant protein and cRAF RAS-binding domain (cRAF-RBD) (Homo sapiens, UniProt P01116, G12C); assay: Inhibitory activity on interaction between KRAS G12C and cRAF (Alpha technology)
T1 construct: His-tag (N)
Method: Interaction between recombinant K-Ras4B G12C mutant protein (amino acids 1-169, SEQ ID NO:2) and cRAF RAS-binding domain (cRAF-RBD, amino acids 50-132, Jena Biosciences GmbH) was measured using Alpha technology (PerkinElmer Inc.).
Recombinant KRAS G12C protein with an N-terminal His-tag was expressed in E. coli and purified by affinity chromatography. To prepare GTP-bound form and GDP-bound form of KRAS G12C protein, 50 μM KRAS G12C protein was incubated with 1 mM GMPPNP (Guanosine-5′-[(β,γ)-imido]triphosphate, Tetralithium salt) (Jena Bioscience GmbH) and 1 mM GDP, respectively, in a loading buffer (20 mM Tris-HCl (pH 7.5), 50 mM NaCl, 1 mM DTT and 2.5 mM EDTA) for 1 hour on ice. After the incubation, MgCl2 was added to a final concentration of 10 mM, followed by incubation at room temperature for 30 minutes. The mixture was allowed to pass through a NAP-5 column to remove free nucleotides and purified, and the resultant nucleotide-bound KRAS G12C protein was used for compound evaluation.
For the measurement of the inhibitory activity of compounds on interaction between KRAS G12C and cRAF-RBD, GMPPNP-bound KRAS G12C protein was incubated with various concentrations of compound in a reaction buffer (20 mM Tris-HCl (pH 7.5), 100 mM NaCl, 1 mM MgCl2, 1 mM TCEP, 0.1% Tween 20) at 25° C. for 1 hour. After the incubation, recombinant cRAF-RBD and Alpha detection reagents were added and incubated at room temperature for 1.5 hours for binding. Interaction of KRAS G12C and cRAF-RBD was monitored by measuring Alpha signal. Inhibition % was calculated using the signal from the reaction without test compound (DMSO control) as 0% inhibition and the signal from the reaction using GDP-bound KRAS G12C in place of GMPPNP-bound KRAS G12C as 100% inhibition. IC50 values were calculated from dose titration curve using curve fitting by XLfit software (IDBS).

MIA PaCa-2 cells = assay: Growth inhibition activity on KRAS-G12C mutant cell line (CellTiter-Glo 3D); type: cell-based, human; conditions: Homo sapiens, MIA PaCa-2, 72 h, MIA PaCa-2, 3-day culture with compound
Method: MIA PaCa-2 cells (given by Sumitomo Dainippon Pharma Co., Ltd.), which are a KRAS-G12C mutant human pancreas cancer cell line, were suspended in a 10% fetal bovine serum-containing RPMI1640 medium (manufactured by Fujifilm Wako Pure Chemical Corporation). The cell suspension was seeded into each well of a 384-well U bottom microplate and cultured in an incubator containing 5% CO2 gas at 37° C. for 1 day. The compounds obtained in the “Preparation of Compounds” section were used as test compounds and were dissolved in DMSO, respectively, and each test compound was diluted with DMSO to give a concentration 500 times the final concentration. The resultant solution of the test compound in DMSO was diluted with the medium used for suspending cells and added to each well of the cell-culture plate to give a DMSO final concentration of 0.2%, followed by culture in an incubator containing 5% CO2 gas at 37° C. for another 3 days. The cell count after 3-day culture in the presence of the test compound was measured using CellTiter-Glo 3D Reagent (manufactured by Promega Corporation). All wells were added with CellTiter-Glo 3D Reagent and mixed for 10 minutes. 30 minutes after mixing, luminescence was measured by a plate reader. The growth inhibition rate was calculated from the following equation, and the concentration of the test compound at which 50% inhibition was achieved (IC50 (nM)) was determined.
[formula] • T: the emission intensity in a well into which a test compound was added. • C: the emission intensity in a well into which a test compound was not added.

[2] = GMPPNP-bound KRAS G12C incubated with compound 25° C. 1 hour, Table 2-1, read-out: IC50
[3] = IC50, GMPPNP-bound KRAS G12C incubated with compound 25° C. 1 hour, Table 2-1
[4] = GMPPNP-bound KRAS G12C incubated with compound 25° C. 1 hour, Table 2, read-out: IC50

T1 sequence (P01116 with tags, fused parts or gaps isoform P01116-2 G12C): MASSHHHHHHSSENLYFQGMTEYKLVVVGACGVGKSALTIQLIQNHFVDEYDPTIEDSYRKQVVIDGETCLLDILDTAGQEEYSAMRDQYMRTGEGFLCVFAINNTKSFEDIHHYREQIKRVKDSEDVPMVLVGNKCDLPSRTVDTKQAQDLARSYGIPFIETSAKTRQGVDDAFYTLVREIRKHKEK

SMILES	IC50 [1, 2]	IC50 (MIA PaCa-2 cells; Table 3-1)	further results
COc1cc2c(nc(C)n2C)c2c1-c1cccn3c(C(=O)c4cc(F)c(NC(=O)/C=C/CNC(C)(C)C)c(F)c4)cc(c13)CCN2C [Example 79, (E)-4-(tert-butylamino)-N-(2,6-difluoro-4-(7-methoxy-9,10,12-trimeth-yl-9,12,13,14-tetrahydro-imidazo[4″,5″:5′,6′]benzo-[1′,2′:2,3]azocino[4,5,6-hi]indolizine-2-carbonyl)-phenyl)but-2-enamide]	32.8 nM	10.6 nM	
Cc1nc2c3c(c(C(F)(F)F)cc2n1C)-c1cccc2c(C(=O)c4cc(F)c(NC(=O)/C=C/CNC(C)(C)CF)c(F)c4)cn(c12)CCN3C [Example 82, (E)-N-(2,6-difluoro-4-(8,9,11-trimethyl-6-(trifluoromethyl)-8,11,12,13-tetrahydro-imidazo[4″,5″:5′,6′]benzo-[1′,2′:5,6][1,4]diazocino-[7,8,1-hi]indole-2-carbon-yl)phenyl)-4-((1-fluoro-2-methylpropan-2-yl)-amino)but-2-enamide]		29.9 nM	IC50 [1, 3]: 24.9 nM
Cn1cnc2c3c(c(C(F)(F)F)cc21)-c1cccn2c(C(=O)c4cc(F)c(NC(=O)/C=C/CN5CCC[C@](C)(O)C5)c(F)c4)cc(c12)CCO3 [Example 196, (S,E)-N-(2,6-difluoro-4-(9-methyl-7-(trifluoro-methyl)-13,14-dihydro-9H-imidazo[4″,5″:5′,6′]-benzo[1′,2′:2,3]oxocino-[4,5,6-hi]indolizine-2-carbonyl)phenyl)-4-(3-hydroxy-3-methylpiper-idin-1-yl)but-2-enamide]	35.1 nM	31.5 nM	
Cc1nc2c3c(c(C(F)(F)F)cc2n1C)-c1cccc2c(C(=O)c4cc(F)c(NC(=O)/C=C/CN[C@@H]5CCOC5)c(F)c4)cn(c12)CCN3C (single isomer, unassigned) [Example 95]		11.4 nM	IC50 [1, 3]: 31.2 nM
CO[C@H]1CC[C@H](NC/C=C/C(=O)Nc2c(F)cc(C(=O)c3cc4c5c(cccn35)-c3c(C(F)(F)F)cc5c(ncn5C)c3N(C)CC4)cc2F)CC1 [Example 74, (E)-N-(4-(9,12-dimethyl-7-(trifluoromethyl)-9,12,13,14-tetrahydro-imidazo[4″,5″:5′,6′]benzo-[1′,2′:2,3]azocino[4,5,6-hi]indolizine-2-carbonyl)-2,6-difluorophenyl)-4-(((1r,4r)-4-methoxycyclo-hexyl)amino)but-2-en-amide]	33.3 nM	8.22 nM	
CN1CCc2cc(C(=O)c3cc(F)c(NC(=O)/C=C/CN[C@H]4CCOC4)c(F)c3)n3cccc(c23)-c2c(C(F)(F)F)cc3c(ncn3C3CC3)c21 [Example 166, (S,E)-N-(4-(9-cycloprop-yl-12-methyl-7-(trifluoro-methyl)-9,12,13,14-tetra-hydroimidazo[4″,5″:5′,6′]-benzo[1′,2′:2,3]azocino-[4,5,6-hi]indolizine-2-carbonyl)-2,6-difluoro-phenyl)-4-((tetrahydro-furan-3-yl)amino)but-2-enamide]	33.7 nM	51.2 nM	
COCc1nc2c3c(c(C(F)(F)F)cc2n1C)-c1cccn2c(C(=O)c4cc(F)c(NC(=O)/C=C/CNC5(C)COC5)c(F)c4)cc(c12)CCO3 (single isomer, unassigned) [Example 99, (E)-N-(2,6-difluoro-4-(10-(methoxymethyl)-9-meth-yl-7-(trifluoromethyl)-13,14-dihydro-9H-imidazo[4″,5″:5′,6′]benzo-[1′,2′:2,3]oxocino[4,5,6-hi]indolizine-2-carbonyl)-phenyl)-4-((3-methyl-oxetan-3-yl)amino)-but-2-enamide]	12.2 nM	9.79 nM	
Cc1cc2c(C)n(C)nc2c2c1-c1cccn3c(C(=O)c4cc(F)c(NC(=O)/C=C/CNC5(C)COC5)c(F)c4)cc(c13)CCN2C (single isomer, unassigned) [Example 145, (E)-N-(2,6-difluoro-4-(7,9,10,12-tetramethyl-10,12,13,14-tetrahydro-indolizino[8′,1′:4,5,6]-azocino[3,2-g]indazole-2-carbonyl)phenyl)4-((3-methyloxetan-3-yl)-amino)-but-2-enamide]	72.3 nM	162 nM	
COc1cc2c(nc(C)n2C)c2c1-c1cccn3c(C(=O)c4cc(F)c(NC(=O)/C=C/CN[C@H]5CCOC5)c(F)c4)cc(c13)CCN2C (single isomer, unassigned) [Example 129]	8.8 nM	7.11 nM	
Cc1c2cc(C(F)(F)F)c3c(c2nn1C)N(C)CCc1cc(C(=O)c2cc(F)c(NC(=O)/C=C/CNC4(C)COC4)c(F)c2)n2cccc-3c12 [Example 146, (E)-N-(2,6-difluoro-4-(9,10,12-trimethyl-7-(trifluoromethyl)-10,12,13,14-tetrahydroindolizino[8′,1′:4,5,6]azocino[3,2-g]indazole-2-carbonyl)phenyl)-4-((3-methyloxetan-3-yl)amino)but-2-enamide]	20.4 nM	19.6 nM	
CN1CCc2cc(C(=O)c3cc(F)c(NC(=O)/C=C/CNC4(C)COC4)c(F)c3)n3cccc(c23)-c2c(C(F)(F)F)cc3c(ncn3C)c21 (single isomer, unassigned) [Example 83]	33.9 nM	15.4 nM	
COCc1nc2c3c(c(C(F)(F)F)cc2n1C)-c1cccn2c(C(=O)c4cc(F)c(NC(=O)/C=C/CNC5(C)CC5)c(F)c4)nc(c12)CCN3C [Example 185, (E)-N-(2,6-difluoro-4-(9-(methoxymethyl)-8,11-dimethyl-6-(trifluorometh-yl)-8,11,12,13-tetrahydro-1,2a,8,10,11-pentaaza-cycloocta[1,2,3-cd:5,4-e′]diindene-2-carbonyl)-phenyl)-4-((1-methyl-cyclopropyl)amino)but-2-enamide]	40.8 nM	75.7 nM	
CO[C@H]1CC[C@H](NC/C=C/C(=O)Nc2c(F)cc(C(=O)c3cn4c5c(cccc35)-c3c(C)cccc3OCC4)cc2F)CC1 [Example 6, (E)-N-(2,6-difluoro-4-(10-methyl-4,5-dihydrobenzo[7,8][1,4]oxazocino[6,5,4-hi]indole-1-carbonyl)phenyl)-4-(((1r,4r)-4-methoxycyclohexyl)amino)but-2-enamide]			IC50 ([1]; IC50, GMPPNP-bound KRAS G12C incubated with compound 25° C. 1 hour, Table 2): 160 nM; IC50 (MIA PaCa-2 cells; Table 3): 670 nM
Cc1nc2c3c(c(C(F)(F)F)cc2n1C)-c1cccn2c(C(=O)c4cc(F)c(NC(=O)/C=C/CNC5(CF)COC5)c(F)c4)cc(c12)CCO3 [Example 50, (E)-N-(4-(9,10-dimethyl-7-(trifluoromethyl)-13,14-dihydro-9H-imidazo[4″,5″:5′,6′]benzo[1′,2′:2,3]oxocino[4,5,6-hi]indolizine-2-carbonyl)-2,6-difluorophenyl)-4-((3-(fluoromethyl)oxetan-3-yl)amino)but-2-enamide]			IC50 [1, 4]: 780 nM
C=C1Cc2cc(C(=O)c3cc(F)c(NC(=O)/C=C/CN[C@H]4CC[C@H](OC)CC4)c(F)c3)n3cccc(c23)-c2c(C)cc3c(nc(C)n3C)c21 [Example 48, (E)-N-(2,6-difluoro-4-(2,3,5-trimethyl-13-methylene-12,13-dihydro-3H-imidazo[4″,5″:5′,6′]benzo[1′,2′:6,7]cyclohepta[1,2,3-hi]indolizine-10-carbonyl)phenyl)-4-(((1r,4r)-4-methoxycyclohexyl)amino)but-2-enamide]			IC50 [1, 4]: 93 nM
